{"source": "patent US20180243345A1", "about": "“METHOD FOR INCREASING MUSCLE GROWTH USING KRILL EXTRACT” (AVOCA, INC., priority 2015, published 2018)", "system": "mTOR signaling", "assay": "mTOR signaling in C2C12 myoblasts (Western blot, ratio of P-p70-389 to total p70)", "assay_type": "cell-based", "conditions": "for change in ratio of P-p70-389 to total p70 (mTOR signaling) compared to vehicle/control, in words / mTOR signaling compared with another stimulant, in words: 10 or 30 μM, 20 minutes; for mTOR signaling (ratio of P-p70-389 to total p70): 20 minutes stimulation, compared to vehicle", "experimental": "C2C12 myoblasts were plated at approximately 30% confluence and grown for 24 hours in 10% FBS High Glucose DMEM with antibiotics (100m/ml streptomycin and 100 U/ml penicillin; Sigma). At 16 hours prior to the experiment, myoblasts cells were switched to serum free high glucose DMEM (no antibiotics) and were approximately 70% confluent at the time of the experiment. All stimulants were dissolved in chloroform to yield a concentration of 10 mg/mL, with the exception of DAG which was dissolved at 2 mg/mL and G3P which was dissolved at 6 mg/mL. […] Accordingly, cells were stimulated for 20 minutes with vehicle (Control; 100 μL of PBS) 10 or 30 μM of RIMFROST Sublime Krill Oil Extract (Rimfrost USA, Inc, Merry Hill, N.C.), soy-derived (S) phosphatidylserine (S-PS), phosphatidylinositol (S-PI), phosphatidylethanolamine (S-PE), phosphatidylcholine (S-PC), phosphatidic acid (S-PA), lysophosphatidic acid (S-LPA), diacylglycerol (DAG), glycerol-3-phosphate (G3P), or egg-derived PA (E-PA). Cells were then harvested in lysis buffer (40 mM Tris, pH 7.5; 1 mM EDTA; 5 mM EGTA; 0.5% Triton X-100; 25 mM (3-glycerophosphate; 25 mM NaF; 1 mM Na3VO4; 10 μg/mL leupeptin; and 1 mM PMSF) and subjected to immunoblotting as previously described. The ratio of P-p70-389 to total p70 was used as readout for mTOR signaling. As used in the Examples disclosed herein, 10 μM of RIMFROST Sublime Krill Oil Extract contains 0.01253 μM PS, which is 0.6% of the phospholipid content; and 30 μM of RIMFROST Sublime Krill Oil Extract contains 0.0376 μM PS, which is 0.6% of the phospholipid content.\nThe data was analyzed using a one way analysis of variance (ANOVA). A Tukey's Multiple Comparison Test was used to determine significant differences between treatments. Significance was set at P<0.05. Statistical analyses were performed on SigmaStat software (San Jose, Calif., USA).\nIn accordance with the materials and methods described above, krill extract, S-PC, S-PS, and S-PA were tested for their ability to activate mTOR signaling. […] The samples were then subjected to Western blot analysis for p70S6K phosphorylation on the threonine 389 residue (p′70-389) and total p70. The ratio of these signals was calculated and used as a marker of mTOR signaling."}
{"compound": "O=P(O)(O)OCC(O)CO", "note": "(stereo not drawn) [G3P, glycerol-3-phosphate]", "values": [{"measurement": "change in ratio of P-p70-389 to total p70 (mTOR signaling) compared to vehicle/control, in words", "result": "no increase"}]}
{"compound": "diacylglycerol [DAG]", "values": [{"measurement": "change in ratio of P-p70-389 to total p70 (mTOR signaling) compared to vehicle/control, in words", "result": "no increase"}]}
{"compound": "lysophosphatidic acid [S-LPA]", "values": [{"measurement": "mTOR signaling compared with another stimulant, in words", "result": "to a greater degree than did E-PA"}, {"measurement": "mTOR signaling (ratio of P-p70-389 to total p70)", "setting": "taken as 10 μM", "result": 638, "unit": "%"}, {"measurement": "mTOR signaling (ratio of P-p70-389 to total p70)", "setting": "taken as 30 μM", "result": 694, "unit": "%"}]}
{"compound": "phosphatidic acid [E-PA]", "values": [{"measurement": "mTOR signaling (ratio of P-p70-389 to total p70)", "setting": "taken as 10 μM", "result": 206, "unit": "%"}, {"measurement": "mTOR signaling (ratio of P-p70-389 to total p70)", "setting": "taken as 30 μM", "result": 221, "unit": "%"}]}
{"compound": "phosphatidic acid [S-PA]", "values": [{"measurement": "mTOR signaling compared with another stimulant, in words", "result": "to a greater degree than did E-PA"}, {"measurement": "mTOR signaling (ratio of P-p70-389 to total p70)", "setting": "taken as 10 μM", "result": 658, "unit": "%"}, {"measurement": "mTOR signaling (ratio of P-p70-389 to total p70)", "setting": "taken as 30 μM", "result": 636, "unit": "%"}]}
{"compound": "phosphatidylcholine [S-PC]", "values": [{"measurement": "change in ratio of P-p70-389 to total p70 (mTOR signaling) compared to vehicle/control, in words", "result": "no increase"}]}
{"compound": "phosphatidylethanolamine [S-PE]", "values": [{"measurement": "change in ratio of P-p70-389 to total p70 (mTOR signaling) compared to vehicle/control, in words", "result": "no increase"}]}
{"compound": "phosphatidylinositol [S-PI]", "values": [{"measurement": "change in ratio of P-p70-389 to total p70 (mTOR signaling) compared to vehicle/control, in words", "result": "no increase"}]}
{"compound": "phosphatidylserine [S-PS]", "values": [{"measurement": "mTOR signaling (ratio of P-p70-389 to total p70)", "setting": "taken as 10 μM", "result": 529, "unit": "%"}, {"measurement": "mTOR signaling (ratio of P-p70-389 to total p70)", "setting": "taken as 30 μM", "result": 558, "unit": "%"}]}
